Source: publication PMC6539005, “Half-Wave Potentials and In Vitro Cytotoxic Evaluation of 3-Acylated 2,5-Bis(phenylamino)-1,4-benzoquinones on Cancer Cells” (Molecules, 2019)

Key:
T24 and DU-145 cells = experiment: MTT cytotoxicity assay, both cancer cell lines; assay type: cell-based; details: Homo sapiens; mean of T24 and DU-145 IC50
Protocol: (§1) The 3-acyl-2,5-bis(phenylamino)-1,4-benzoquinones 2a–q were evaluated for their in vitro cytotoxic activities against normal human embryonic kidney cells (HEK-293 cells) and two human cancer cell lines (T24 and DU-145 cells) in 72 h drug exposure assays. The cytotoxic activities of the new compounds were measured using conventional microculture tetrazolium reduction assays. The cytotoxic activities are expressed in terms of IC50. Doxorubicin, a clinically used anti-cancer agent, was taken as a positive control.
(§2) Human cancer cell lines T24 (bladder) and DU-145 (prostate), and non-tumor HEK-293 cells were obtained from the American Type Culture Collection (ATCC, Manassas, VA, USA). The cultures were maintained at a density of 1× 10^5 cells/mL and the medium was changed at 48- to 72-h intervals. They were cultured in high-glucose Dulbecco’s modified Eagle medium (Gibco, Grand Island, NY, USA) supplemented with 10% fetal calf serum, penicillin (100 U/mL), and streptomycin (100 μg/mL). All cultures were kept at 37 °C in 95% air/5% CO2 at 100% humidity. Phosphate-buffered saline (PBS) was purchased from Gibco. Cells were incubated at the indicated times at 37 °C, with or without quinones at various concentrations.
(§3) The cytotoxicity of the quinones was assessed by following the reduction of MTT (3-(4,5-Dimethylthiazol-2-yl)-2,5-diphenyltetrazolium bromide) to formazan blue. Cells were seeded into 96-well plates at a density of 10,000 cells/well for 24 h and then incubated for 48 h, with or without the quinone derivatives. Doxorubicin was used as the standard chemotherapeutic agent (positive control). Cells were then washed twice with warm PBS and incubated with MTT (0.5 mg/mL) for 2 hours at 37 °C. Blue formazan crystals were solubilized by adding 100 µL DMSO/well, and the optical density of the coloured solutions was subsequently read at 550 nm. Results are expressed as percentage of MTT reduction, compared to untreated control conditions. The IC50 values were calculated using the GraphPad Prism software (San Diego, CA, USA).

BCL2 = experiment: qPCR relative gene expression in T24 cells, BCL2; assay type: cell-based, human; details: 48 h; 2c at 32 µM, 2d at 68 µM; normalized to B2M, 2^−ΔΔCt vs vehicle; mean ± SEM, n = 5
Protocol: (§4) The T24 cells were cultured as previously mentioned. They were seeded into 6-well plates (2 × 10^5 cells/well) and, after 24 h of incubation, they were treated for 48 h with 2c and 2d (at 32 and 68 µM, respectively). Afterwards, they were washed with phosphate-buffered saline. The cellular lysate was prepared with E.Z.N.A.® RNA-Lock Reagent (Omega Bio-tek, Norcross, GA, USA) to preserve and immediately stabilize the total RNA for the subsequent gene expression assays. The total RNA isolated from the cells using the E.Z.N.A.® HP Total RNA Isolation Kit (Omega Bio-tek) was reverse-transcribed to cDNA using the AffinityScript QPCR cDNA Synthesis Kit (Agilent Technologies, Santa Clara, CA, USA) and 1000 ng of the RNA sample.
(§5) The cDNA synthesized was employed for qPCR using Brilliant III Ultra-Fast SYBR® Green QPCR Master Mix (Agilent Technologies) in a Mx3000P qPCR System (Agilent Technologies), employing a 96-well plate with 20 μL of PCR reaction per well and 10 pmol each of forward and reverse gene-specific primers. Ten genes were analyzed (see Table 4). The relative gene expressions were determined using Beta-2-microglobulin (B2M) as housekeeping, and the delta-delta Ct method (2^−ΔΔCt method) with regard to the vehicle-treated group (i.e., the reference group). Five biological replicates were used from each group (treated and reference group). […]

mTOR = experiment: qPCR relative gene expression in T24 cells, mTOR; assay type: cell-based, human; details: 48 h; 2c at 32 µM, 2d at 68 µM; normalized to B2M, 2^−ΔΔCt vs vehicle; mean ± SEM, n = 5
Protocol: as §4, §5

DU-145 (prostate) cells = experiment: MTT cytotoxicity assay, DU-145; assay type: cell-based; details: Homo sapiens, 48 h incubation (b12: 72 h), n = 3, read-out: IC50 ± SEM DU-145
Protocol: as §1, §2, §3

GSR = experiment: qPCR relative gene expression in T24 cells, GSR; assay type: cell-based, human; details: 48 h; 2c at 32 µM, 2d at 68 µM; normalized to B2M, 2^−ΔΔCt vs vehicle; mean ± SEM, n = 5
Protocol: as §4, §5

[1] = Half-wave potentials by cyclic voltammetry in acetonitrile; assay type: physicochemical; details: rt, Pt electrode, vs non-aqueous Ag/Ag+, given as negative of potential; for −E^I 1/2: first one-electron reduction, 0.1 M tetraethylammonium tetrafluoroborate; for −E^II 1/2: second one-electron reduction
Protocol: The members of the 3-acyl-2,5-bis(phenylamino)-1,4-benzoquinone series 2a–q were evaluated for their half-wave potentials (E^I 1/2 and E^II 1/2). They were measured by cyclic voltammetry in acetonitrile at room temperature, using a platinum electrode and 0.1 M tetraethylamoniumtetrafluoroborate as the supporting electrolyte. The voltammograms were run in the potential range from 0.0 to −2.0 V versus non-aqueous Ag/Ag^+.

CDC25A = experiment: qPCR relative gene expression in T24 cells, CDC25A; assay type: cell-based, human; details: 48 h; 2c at 32 µM, 2d at 68 µM; normalized to B2M, 2^−ΔΔCt vs vehicle; mean ± SEM, n = 5
Protocol: as §4, §5

HDAC3 = experiment: qPCR relative gene expression in T24 cells, HDAC3; assay type: cell-based, human; details: 48 h; 2c at 32 µM, 2d at 68 µM; normalized to B2M, 2^−ΔΔCt vs vehicle; mean ± SEM, n = 5
Protocol: as §4, §5

T24 (bladder) cells = experiment: MTT cytotoxicity assay, T24; assay type: cell-based, human; details: Homo sapiens, 48 h incubation (b12: 72 h), n = 3, read-out: IC50 ± SEM T24
Protocol: as §1, §2, §3

HDAC4 = experiment: qPCR relative gene expression in T24 cells, HDAC4; assay type: cell-based, human; details: 48 h; 2c at 32 µM, 2d at 68 µM; normalized to B2M, 2^−ΔΔCt vs vehicle; mean ± SEM, n = 5
Protocol: as §4, §5

TP53 = experiment: qPCR relative gene expression in T24 cells, TP53; assay type: cell-based, human; details: 48 h; 2c at 32 µM, 2d at 68 µM; normalized to B2M, 2^−ΔΔCt vs vehicle; mean ± SEM, n = 5
Protocol: as §4, §5

HEK-293 kidney cells = experiment: MTT cytotoxicity assay, HEK-293; assay type: cell-based; details: Homo sapiens, HEK293, non-tumor cells, 48 h incubation (b12: 72 h), n = 3, read-out: IC50 ± SEM HEK-293
Protocol: as §1, §2, §3

GSTP1 = experiment: qPCR relative gene expression in T24 cells, GSTP1; assay type: cell-based, human; details: 48 h; 2c at 32 µM, 2d at 68 µM; normalized to B2M, 2^−ΔΔCt vs vehicle; mean ± SEM, n = 5
Protocol: as §4, §5

HRAS = experiment: qPCR relative gene expression in T24 cells, HRAS; assay type: cell-based, human; details: 48 h; 2c at 32 µM, 2d at 68 µM; normalized to B2M, 2^−ΔΔCt vs vehicle; mean ± SEM, n = 5
Protocol: as §4, §5

leukemia L1210 = test system: leukemia L1210; set-up: method as in PMID 3746824; details: cited from earlier work
[2] = test system: human colon adenocarcinoma; set-up: method as in PMID 3746824; details: cited from earlier work

Row | SMILES | IC50 (T24 and DU-145 cells) | Relative Expression Levels in T24 Cells, BCL2 (BCL2) | Relative Expression Levels in T24 Cells, mTOR (mTOR) | IC50 (DU-145 (prostate) cells) | Relative Expression Levels in T24 Cells, GSR (GSR) | −E^I 1/2 [1] | −E^II 1/2 [1] | Relative Expression Levels in T24 Cells, CDC25A (CDC25A) | Relative Expression Levels in T24 Cells, HDAC3 (HDAC3) | IC50 (T24 (bladder) cells) | Relative Expression Levels in T24 Cells, HDAC4 (HDAC4) | Relative Expression Levels in T24 Cells, TP53 (TP53) | IC50 (HEK-293 kidney cells) | Relative Expression Levels in T24 Cells, GSTP1 (GSTP1) | Relative Expression Levels in T24 Cells, HRAS (HRAS) | activity against the leukemia L1210 screening in vitro (leukemia L1210) | in vitro inhibitory activity against human colon adenocarcinoma proliferation [2]
1 | CCCCCC(=O)C1=C(Nc2ccccc2)C(=O)C=C(Nc2ccccc2)C1=O [2c, 3-Hexanoyl-2,5-bis(phenylamino)-1,4-benzoquinone] | 30.7 µM | 1.28 ± 0.15 | 0.99 ± 0.13 | 45.2 ± 4.5 µM | 0.96 ± 0.05 | 570 mV | 1090 mV | 1.54 ± 0.13 | 1.03 ± 0.15 | 16.3 ± 1.7 µM | 1.08 ± 0.13 | 1.06 ± 0.11 | > 100 µM | 0.9 ± 0.08 | 1.07 ± 0.13 |  | 
2 | CCCCCCCC(=O)C1=C(Nc2ccccc2)C(=O)C=C(Nc2ccccc2)C1=O [2d, 3-Octanoyl-2,5-bis(phenylamino)-1,4-benzoquinone] | 28.7 µM | 0.8 ± 0.04 | 0.95 ± 0.02 | 23.5 ± 2.1 µM | 1.07 ± 0.04 | 590 mV | 910 mV | 1.07 ± 0.03 | 1.02 ± 0.05 | 34 ± 3.7 µM | 1.01 ± 0.02 | 1.01 ± 0.04 | > 100 µM | 1.21 ± 0.04 | 1.33 ± 0.06 |  | 
3 | CC(C)c1ccc(NC2=C(Cl)C(=O)C(Nc3ccc(C(C)C)cc3)=C(Cl)C2=O)cc1 [B] |  |  |  |  |  |  |  |  |  |  |  |  |  |  |  | active | good in vitro inhibitory activity
